Assay results reported in PMC3119665, “A New Drug Design Targeting the Adenosinergic System for Huntington's Disease” (PLoS ONE, 2011).

What was measured:
Ryanodine RyR3 = molecular target: T1, Ryanodine RyR3 (Rattus norvegicus, UniProt A0ABK0LPH6); assay: Radioligand binding panel (Table S1); details: 10 μM T1-11, n 2
T1 construct: purchased MDS Pharma Services Taiwan

Neuromedin U NMU1 = molecular target: T2, Neuromedin U NMU1 (Homo sapiens, UniProt Q9HB89); assay: Radioligand binding panel (Table S1); details: 10 μM T1-11, n 2
T2 construct: purchased MDS Pharma Services Taiwan

[1] = molecular target: T3, Serotonin (5-Hydroxytryptamine) 5-HT1A (Homo sapiens, UniProt P08908); assay: Radioligand binding panel (Table S1); details: 10 μM T1-11, n 2
T3 construct: purchased MDS Pharma Services Taiwan

[2] = tested on: Calcium Channel L-Type, Phenylalkylamin.; assay: Radioligand binding panel (Table S1); parameters: species or system rat; details: 10 μM T1-11, n 2
[3] = molecular target: T4, Serotonin (5-Hydroxytryptamine) 5-HT2C (Homo sapiens, UniProt P28335); assay: Radioligand binding panel (Table S1); details: 10 μM T1-11, n 2
T4 construct: purchased MDS Pharma Services Taiwan

Chemokine CCR1 = molecular target: T5, Chemokine CCR1 (Homo sapiens, UniProt P32246); assay: Radioligand binding panel (Table S1); details: 10 μM T1-11, n 2
T5 construct: purchased MDS Pharma Services Taiwan

Estrogen ERβ = molecular target: T6, Estrogen ERβ (Homo sapiens, UniProt Q92731); assay: Radioligand binding panel (Table S1); details: 10 μM T1-11, n 2
T6 construct: purchased MDS Pharma Services Taiwan

striatal adenosine = assay: In vivo brain dialysis and adenosine measurement; parameters: species or system mice; details: T1-11 100 µM perfused through the dialysis probe
Experimental: The level of adenosine in the brain was determined using microdialysis as previously described, [73]. In brief, concentrated dialysis probes with 4-mm dialysis membranes (CMA, Stockholm, Sweden) were used to monitor the extracellular adenosine in the striatum of rats. After inducing anesthesia with chloral hydrate ([…], IP), rats were implanted with the probe, and the coordinates for implantation were AP +1.0 mm, LM +2.8 mm, and VD −6.5 mm. Ringer's solution (140 mM NaCl, 1.2 mM CaCl2, 3.0 mM KCl, 1.0 mM MgCl2, and 0.04 mM ascorbic acid) was continuously perfused (0.5 µl/min) via probes throughout the experiments. After implantation and perfusion for 1.5 h, the perfusate was collected for 1 h as a baseline and then Ringer's solution containing T1-11 (100 µM) was perfused for another 1 h. The perfusate was analyzed by high-performance liquid chromatography (HPLC; Agilent 1100 series, Germany) coupled with a photo diode array detector (Agilent G1315B,) at 260 nm. Separations were obtained with a reversed-phase column (Cosmosil 5C18-AR-II, 250×4.6 mm, Kyoto, Japan) eluted at a flow rate of 1.0 ml/min with a linear solvent gradient elution system composed of eluents A and B (A: 0.0085% H3PO4 in H2O; B: 100% acetonitrile) according to the following profile: 0∼15 min, 100%∼90% A, 0%∼10% B.

R6/2 mice = assay: Hemodynamic examination of R6/2 mice; assay type: in vivo; details: subcutaneous Alzet minipump for 48 h, 125 µg/mouse/day
Experimental: Heart rates and blood pressure of conscious and anesthetized mice were measured using a blood pressure monitor (model MK-2000; Muromachi Kikai, Tokyo, Japan) between 10 AM to 6 PM. Values of 12–18 successful readings per mouse were used to determine the blood pressure.
(A) T1-11 (125 µg/mouse/day) or vehicle (CON) was administrated subcutaneously to the indicated mice of 7 weeks old using ALZET osmotic minipumps for 6 weeks. Rotarod performance was assessed. (B, C) T1-11 (125 µg/mouse/day) was administrated subcutaneously to the indicated mice of 9 weeks old using ALZET osmotic minipumps for 48 h. Heart rate (B) and blood pressure (C) were determined by a tail-cuff method. * p<0.05. *** p<0.005. (TIF) Click here for additional data file.

Melanocortin MC5 = molecular target: T7, Melanocortin MC5 (Homo sapiens, UniProt P33032); assay: Radioligand binding panel (Table S1); details: 10 μM T1-11, n 2
T7 construct: purchased MDS Pharma Services Taiwan

Muscarinic M4 = molecular target: T8, Muscarinic M4 (Homo sapiens, UniProt P08173); assay: Radioligand binding panel (Table S1); details: 10 μM T1-11, n 2
T8 construct: purchased MDS Pharma Services Taiwan

Leukotriene, BLT (LTB4) = molecular target: T9, Leukotriene, BLT (LTB4) (Homo sapiens, UniProt Q15722); assay: Radioligand binding panel (Table S1); details: 10 μM T1-11, n 2
T9 construct: purchased MDS Pharma Services Taiwan

[4] = molecular target: T10, Leukotriene, Cysteinyl CysLT1 (Homo sapiens, UniProt Q9Y271); assay: Radioligand binding panel (Table S1); details: 10 μM T1-11, n 2
T10 construct: purchased MDS Pharma Services Taiwan

Dopamine D5 = molecular target: T11, Dopamine D5 (Homo sapiens, UniProt P21918); assay: Radioligand binding panel (Table S1); details: 10 μM T1-11, n 2
T11 construct: purchased MDS Pharma Services Taiwan

Somatostatin sst1 = molecular target: T12, Somatostatin sst1 (Homo sapiens, UniProt P30872); assay: Radioligand binding panel (Table S1); details: 10 μM T1-11, n 2
T12 construct: purchased MDS Pharma Services Taiwan

[5] = molecular target: T13, Nicotinic Acetylcholine α1, Bungarotoxin (Homo sapiens, UniProt P02708+P07510+Q07001); assay: Radioligand binding panel (Table S1)
T13 construct: purchased MDS Pharma Services Taiwan

Dopamine D2S = molecular target: T14, Dopamine D2S (Homo sapiens, UniProt P14416); assay: Radioligand binding panel (Table S1); details: 10 μM T1-11, n 2
T14 construct: purchased MDS Pharma Services Taiwan

[6] = molecular target: T15, N-Formyl Peptide Receptor, FPR1 (Homo sapiens, UniProt P21462); assay: Radioligand binding panel (Table S1); details: 10 μM T1-11, n 2
T15 construct: purchased MDS Pharma Services Taiwan

Vitamin D3 = molecular target: T16, Vitamin D3 (Homo sapiens, UniProt P11473); assay: Radioligand binding panel (Table S1); details: 10 μM T1-11, n 2
T16 construct: purchased MDS Pharma Services Taiwan

Endothelin ETB = molecular target: T17, Endothelin ETB (Homo sapiens, UniProt P24530); assay: Radioligand binding panel (Table S1); details: 10 μM T1-11, n 2
T17 construct: purchased MDS Pharma Services Taiwan

Transporter, Choline = molecular target: T18, Transporter, Choline (Rattus norvegicus, UniProt Q9JMD7); assay: Radioligand binding panel (Table S1); details: 10 μM T1-11, n 2
T18 construct: purchased MDS Pharma Services Taiwan

Muscarinic M3 = molecular target: T19, Muscarinic M3 (Homo sapiens, UniProt P20309); assay: Radioligand binding panel (Table S1); details: 10 μM T1-11, n 2
T19 construct: purchased MDS Pharma Services Taiwan

[7] = tested on: Thyrotropin Releasing Hormone (TRH); assay: Radioligand binding panel (Table S1); parameters: species or system rat; details: 10 μM T1-11, n 2
Adrenergic α 2B = molecular target: T20, Adrenergic α 2B (Homo sapiens, UniProt P18089); assay: Radioligand binding panel (Table S1); details: 10 μM T1-11, n 2
T20 construct: purchased MDS Pharma Services Taiwan

[8] = molecular target: T21, Corticotropin Releasing Factor, CRF1 (Homo sapiens, UniProt P34998); assay: Radioligand binding panel (Table S1); details: 10 μM T1-11, n 2
T21 construct: purchased MDS Pharma Services Taiwan

Galanin GAL1 = molecular target: T22, Galanin GAL1 (Homo sapiens, UniProt P47211); assay: Radioligand binding panel (Table S1); details: 10 μM T1-11, n 2
T22 construct: purchased MDS Pharma Services Taiwan

Glutamate, AMPA = assay: Radioligand binding panel (Table S1); parameters: species or system rat; details: 10 μM T1-11, n 2
Histamine H4 = molecular target: T23, Histamine H4 (Homo sapiens, UniProt Q9H3N8); assay: Radioligand binding panel (Table S1); details: 10 μM T1-11, n 2
T23 construct: purchased MDS Pharma Services Taiwan

Leptin = molecular target: T24, Leptin (Mus musculus, UniProt P48356); assay: Radioligand binding panel (Table S1); details: 10 μM T1-11, n 2
T24 construct: purchased MDS Pharma Services Taiwan

[9] = tested on: Muscarinic, Oxotremorine-M; assay: Radioligand binding panel (Table S1); parameters: species or system rat; details: 10 μM T1-11, n 2
Adrenergic α 1B = molecular target: T25, Adrenergic α 1B (Rattus norvegicus, UniProt P15823); assay: Radioligand binding panel (Table S1); details: 10 μM T1-11, n 2
T25 construct: purchased MDS Pharma Services Taiwan
T25 sequence (P15823 whole entry): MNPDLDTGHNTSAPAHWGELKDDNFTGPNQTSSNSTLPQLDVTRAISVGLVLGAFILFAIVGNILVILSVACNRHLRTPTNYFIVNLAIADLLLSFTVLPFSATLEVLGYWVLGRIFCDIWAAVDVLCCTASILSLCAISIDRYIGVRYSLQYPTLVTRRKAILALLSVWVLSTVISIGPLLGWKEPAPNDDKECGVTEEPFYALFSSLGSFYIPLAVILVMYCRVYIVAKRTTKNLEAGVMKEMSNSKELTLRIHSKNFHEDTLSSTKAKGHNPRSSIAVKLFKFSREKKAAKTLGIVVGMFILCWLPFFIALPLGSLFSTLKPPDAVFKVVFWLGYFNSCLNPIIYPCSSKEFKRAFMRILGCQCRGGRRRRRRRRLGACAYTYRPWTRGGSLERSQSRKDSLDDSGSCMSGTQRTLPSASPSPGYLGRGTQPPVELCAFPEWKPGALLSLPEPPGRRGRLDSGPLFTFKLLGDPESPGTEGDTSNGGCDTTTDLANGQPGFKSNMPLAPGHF

T11 sequence (P21918 whole entry): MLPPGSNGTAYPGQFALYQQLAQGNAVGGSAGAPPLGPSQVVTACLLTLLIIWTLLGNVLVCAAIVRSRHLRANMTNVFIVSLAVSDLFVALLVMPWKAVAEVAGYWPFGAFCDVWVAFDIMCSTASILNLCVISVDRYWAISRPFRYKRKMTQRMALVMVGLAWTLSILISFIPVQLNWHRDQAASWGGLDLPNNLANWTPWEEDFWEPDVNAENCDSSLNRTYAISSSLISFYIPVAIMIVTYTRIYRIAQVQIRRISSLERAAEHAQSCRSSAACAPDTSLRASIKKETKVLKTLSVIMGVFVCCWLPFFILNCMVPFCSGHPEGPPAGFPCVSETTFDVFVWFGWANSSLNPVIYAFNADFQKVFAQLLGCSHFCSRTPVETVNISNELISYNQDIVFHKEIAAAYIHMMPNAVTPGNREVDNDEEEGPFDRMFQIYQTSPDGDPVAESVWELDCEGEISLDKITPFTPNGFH
T7 sequence (P33032 whole entry): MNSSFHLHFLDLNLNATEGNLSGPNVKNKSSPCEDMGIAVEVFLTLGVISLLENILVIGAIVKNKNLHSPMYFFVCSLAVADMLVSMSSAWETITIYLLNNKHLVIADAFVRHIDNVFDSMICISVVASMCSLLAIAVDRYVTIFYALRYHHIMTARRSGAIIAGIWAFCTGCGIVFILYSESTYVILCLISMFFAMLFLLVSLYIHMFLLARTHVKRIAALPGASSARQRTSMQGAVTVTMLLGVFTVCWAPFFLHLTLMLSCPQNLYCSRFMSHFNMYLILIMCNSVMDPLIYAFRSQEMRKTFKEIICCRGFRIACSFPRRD
T24 sequence (P48356 22-1162): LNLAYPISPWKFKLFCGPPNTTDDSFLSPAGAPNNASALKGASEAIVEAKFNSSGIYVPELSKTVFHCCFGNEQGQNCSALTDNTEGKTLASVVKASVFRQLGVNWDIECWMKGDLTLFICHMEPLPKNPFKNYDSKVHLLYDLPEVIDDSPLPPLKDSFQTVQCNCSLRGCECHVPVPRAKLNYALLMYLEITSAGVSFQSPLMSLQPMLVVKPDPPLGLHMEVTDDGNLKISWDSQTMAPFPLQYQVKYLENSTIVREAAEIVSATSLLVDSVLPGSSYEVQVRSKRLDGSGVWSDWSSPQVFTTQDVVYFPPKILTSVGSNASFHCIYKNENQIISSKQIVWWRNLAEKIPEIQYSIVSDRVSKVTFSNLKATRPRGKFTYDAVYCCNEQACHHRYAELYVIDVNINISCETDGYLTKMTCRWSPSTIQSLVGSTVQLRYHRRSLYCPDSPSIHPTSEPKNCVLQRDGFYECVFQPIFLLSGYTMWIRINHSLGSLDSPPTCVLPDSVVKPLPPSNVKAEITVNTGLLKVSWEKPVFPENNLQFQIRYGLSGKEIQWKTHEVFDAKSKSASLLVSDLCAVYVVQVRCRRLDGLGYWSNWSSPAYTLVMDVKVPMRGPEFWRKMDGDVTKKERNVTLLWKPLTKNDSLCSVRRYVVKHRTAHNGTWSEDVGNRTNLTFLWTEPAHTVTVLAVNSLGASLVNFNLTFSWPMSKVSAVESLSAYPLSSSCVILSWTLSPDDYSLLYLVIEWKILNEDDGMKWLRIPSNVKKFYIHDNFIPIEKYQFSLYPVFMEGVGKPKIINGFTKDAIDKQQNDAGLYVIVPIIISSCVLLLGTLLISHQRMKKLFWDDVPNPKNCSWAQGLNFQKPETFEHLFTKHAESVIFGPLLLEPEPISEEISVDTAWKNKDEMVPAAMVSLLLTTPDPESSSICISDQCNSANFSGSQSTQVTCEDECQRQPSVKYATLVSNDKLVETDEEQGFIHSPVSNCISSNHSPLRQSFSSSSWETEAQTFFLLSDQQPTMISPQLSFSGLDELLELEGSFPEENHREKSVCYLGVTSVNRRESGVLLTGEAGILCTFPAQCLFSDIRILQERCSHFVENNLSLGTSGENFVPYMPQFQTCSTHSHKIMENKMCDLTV
T17 sequence (P24530 27-442): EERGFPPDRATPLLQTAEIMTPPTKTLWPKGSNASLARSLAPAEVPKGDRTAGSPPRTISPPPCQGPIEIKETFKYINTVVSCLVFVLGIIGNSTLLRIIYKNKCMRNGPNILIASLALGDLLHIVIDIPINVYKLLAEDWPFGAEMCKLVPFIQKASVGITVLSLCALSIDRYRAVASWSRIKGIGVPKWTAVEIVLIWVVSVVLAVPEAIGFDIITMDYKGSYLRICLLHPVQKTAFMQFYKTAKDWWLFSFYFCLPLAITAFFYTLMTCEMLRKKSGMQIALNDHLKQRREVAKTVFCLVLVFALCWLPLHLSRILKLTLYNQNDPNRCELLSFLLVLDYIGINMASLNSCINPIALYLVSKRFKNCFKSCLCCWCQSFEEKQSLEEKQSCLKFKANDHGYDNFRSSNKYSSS
T19 sequence (P20309 whole entry): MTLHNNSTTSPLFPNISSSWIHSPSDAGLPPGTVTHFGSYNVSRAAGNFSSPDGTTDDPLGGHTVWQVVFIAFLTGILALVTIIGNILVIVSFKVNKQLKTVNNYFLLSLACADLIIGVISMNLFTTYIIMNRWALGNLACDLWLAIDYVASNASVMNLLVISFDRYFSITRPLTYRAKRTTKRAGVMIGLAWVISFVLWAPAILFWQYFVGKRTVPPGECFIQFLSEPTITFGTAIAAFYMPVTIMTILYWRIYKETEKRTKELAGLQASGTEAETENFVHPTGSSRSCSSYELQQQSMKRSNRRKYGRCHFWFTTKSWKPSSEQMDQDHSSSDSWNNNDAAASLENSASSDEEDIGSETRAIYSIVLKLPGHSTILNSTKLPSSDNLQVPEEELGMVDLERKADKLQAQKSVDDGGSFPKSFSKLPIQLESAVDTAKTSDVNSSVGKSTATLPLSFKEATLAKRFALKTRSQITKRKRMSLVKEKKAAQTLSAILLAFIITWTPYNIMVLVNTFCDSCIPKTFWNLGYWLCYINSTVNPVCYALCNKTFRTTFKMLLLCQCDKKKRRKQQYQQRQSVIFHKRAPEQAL
T20 sequence (P18089 whole entry): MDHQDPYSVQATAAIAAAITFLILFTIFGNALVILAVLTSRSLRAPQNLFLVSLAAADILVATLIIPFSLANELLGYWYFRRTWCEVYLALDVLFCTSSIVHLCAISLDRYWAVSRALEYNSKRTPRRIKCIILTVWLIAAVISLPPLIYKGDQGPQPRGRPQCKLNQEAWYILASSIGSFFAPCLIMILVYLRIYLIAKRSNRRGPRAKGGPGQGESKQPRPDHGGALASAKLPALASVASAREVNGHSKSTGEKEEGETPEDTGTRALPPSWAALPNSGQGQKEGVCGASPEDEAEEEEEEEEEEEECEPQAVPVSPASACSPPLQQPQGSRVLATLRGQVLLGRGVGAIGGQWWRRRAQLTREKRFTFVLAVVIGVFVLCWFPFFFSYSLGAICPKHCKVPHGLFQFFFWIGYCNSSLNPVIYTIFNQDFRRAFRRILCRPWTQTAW
T16 sequence (P11473 whole entry): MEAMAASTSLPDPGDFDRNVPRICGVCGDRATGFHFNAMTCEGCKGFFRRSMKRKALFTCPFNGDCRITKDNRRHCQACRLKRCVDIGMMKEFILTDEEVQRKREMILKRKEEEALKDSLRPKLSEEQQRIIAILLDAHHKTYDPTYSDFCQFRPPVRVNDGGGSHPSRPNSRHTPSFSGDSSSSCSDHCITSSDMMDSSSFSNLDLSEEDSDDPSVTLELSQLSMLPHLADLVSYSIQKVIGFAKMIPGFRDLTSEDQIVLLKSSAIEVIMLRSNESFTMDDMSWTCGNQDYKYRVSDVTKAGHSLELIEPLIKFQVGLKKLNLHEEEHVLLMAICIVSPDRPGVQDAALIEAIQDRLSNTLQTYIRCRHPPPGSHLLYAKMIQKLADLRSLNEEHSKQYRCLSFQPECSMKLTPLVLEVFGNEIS
T18 sequence (Q9JMD7 whole entry): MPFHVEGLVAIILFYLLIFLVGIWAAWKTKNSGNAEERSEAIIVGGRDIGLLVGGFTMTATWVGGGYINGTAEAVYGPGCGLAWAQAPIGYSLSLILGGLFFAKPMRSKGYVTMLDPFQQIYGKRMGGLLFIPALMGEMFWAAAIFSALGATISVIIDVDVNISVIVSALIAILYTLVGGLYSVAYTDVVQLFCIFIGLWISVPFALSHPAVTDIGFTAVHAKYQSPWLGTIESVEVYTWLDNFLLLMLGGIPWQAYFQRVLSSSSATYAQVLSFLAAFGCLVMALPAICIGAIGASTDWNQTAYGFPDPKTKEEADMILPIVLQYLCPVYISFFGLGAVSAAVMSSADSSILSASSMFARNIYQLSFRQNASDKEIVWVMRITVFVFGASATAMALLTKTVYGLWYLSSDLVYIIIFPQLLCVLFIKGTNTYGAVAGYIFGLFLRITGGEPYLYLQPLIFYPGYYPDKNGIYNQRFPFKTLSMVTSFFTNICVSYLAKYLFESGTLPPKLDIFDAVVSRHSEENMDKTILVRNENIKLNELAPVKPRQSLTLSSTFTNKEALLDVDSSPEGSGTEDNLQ

In the case of `OC[C@H]1O[C@@H](n2cnc3c(NCc4ccc(O)cc4)ncnc32)[C@H](O)[C@@H]1O` [T1-11, N ^6-(4-hydroxybenzyl)adenine riboside], the inhibition at 10 µM (Ryanodine RyR3) is reported as -1%, the inhibition at 10 µM (Neuromedin U NMU1) is reported as -1% and the inhibition at 10 µM [1] is reported as 9%. For the same molecule, the “% Inhibition” value [2] was -7%, the inhibition at 10 µM [3] was 27% and the inhibition at 10 µM (Chemokine CCR1) was -3%. For the same molecule, the inhibition at 10 µM (Estrogen ERβ) was 40%, the “Level of striatal adenosine (microdialysis)” value (striatal adenosine) was “significantly enhanced the level of striatal adenosine” and the Blood pressure (R6/2 mice) was “did not change the blood pressure of R6/2 mice”. For the same molecule, the Heart rate (R6/2 mice) was “did not affect their heart rate and blood pressure”, the inhibition at 10 µM (Melanocortin MC5) was 1% and the inhibition at 10 µM (Muscarinic M4) was 9%. The inhibition at 10 µM (Leukotriene, BLT (LTB4)) was -6%, the inhibition at 10 µM [4] was -4% and the inhibition at 10 µM (Dopamine D5) was 2%. It also gave an inhibition at 10 µM (Somatostatin sst1) of -3%, an inhibition at 10 µM [5] of 3% and an inhibition at 10 µM (Dopamine D2S) of 10%. For the same molecule, the inhibition at 10 µM [6] was 5%, the inhibition at 10 µM (Vitamin D3) was 6% and the inhibition at 10 µM (Endothelin ETB) was 2%. The inhibition at 10 µM (Transporter, Choline) was -10%, the inhibition at 10 µM (Muscarinic M3) was -6% and the “% Inhibition” value [7] was -4%. The inhibition at 10 µM (Adrenergic α 2B) was 2%, the inhibition at 10 µM [8] was 1% and the inhibition at 10 µM (Galanin GAL1) was 0%. For the same molecule, the “% Inhibition” value (Glutamate, AMPA) was -9%, the inhibition at 10 µM (Histamine H4) was 8% and the inhibition at 10 µM (Leptin) was 6%. The “% Inhibition” value [9] was -7% and the inhibition at 10 µM (Adrenergic α 1B) was 3%.
